Experimental findings from paper PMC6979384, “Characterization of the plant homeodomain (PHD) reader family for their histone tail interactions” (Epigenetics & Chromatin, 2020) are described below.

What all share (assay): dCypher AlphaScreen Phase A (reader titration)
Holding throughout (type): binding, human
Holding throughout (details): 100 nM peptide, 23 °C, n = 2

The subject of assay [1] is CHD4 (PPCC). The method, then:
(§1) Fig. 3 dCypher histone peptide-binding assays define the PTM recognition preference of PHD proteins with high sensitivity. a–h Binding curves to determine optimal reader protein concentration for full peptide library screening on the dCypher® AlphaScreen® platform (see “Methods”). X-axes are log(protein concentration (M)) at constant peptide concentration (100 nM); Y-axes are AlphaScreen counts, representing relative strength of binding (n = 2; error bars are S.D.). i Heat map represents relative binding to H3 N-terminal peptides (left) by PHD-containing GST-tagged proteins (top) using the dCypher AlphaScreen platform. Protein concentrations can be found in Additional file 5: Table S4. Binding strength is indicated by color gradient from green to yellow (stronger to weaker). The asterisk (*) by MLL5 signifies its general preference for H3K4 methylation. Alpha counts (n = 2) were normalized individually for each protein to the highest signal for each respective assay. For full dCypher peptide screen data, see Additional file 4: Table S3
(§2) We next employed a highly sensitive proximity-based AlphaScreen histone peptide assay (dCypher®) to provide a third and orthogonal approach to analyzing the histone binding preferences for a subset of the 31 PHD proteins with respect to various histone tail PTMs. In this assay, biotinylated peptides are bound to streptavidin “donor” beads and the GST-tagged reader domains bound to Glutathione “acceptor” beads. […] Initial binding assays were conducted for each fusion protein using three peptides [H3 (1–20) with K4me0, H3K4me3 or H3K9me3] to determine the optimal reader domain concentration for full peptide library studies (Fig. 3a–h; Additional file 4: Table S3 and Additional file 5: Table S4). […]
(§3) The dCypher peptide screen assay was performed as previously described. […] Plates were incubated at 23 °C in subdued lighting for 60 min and AlphaLISA signal measured on a PerkinElmer 2104 EnVision (680 nm laser excitation, 570 nm emission filter ± 50 nm bandwidth). […]

Assay [2] deals with PHRF1 (RP). The method, then: as §1, §2, §3
Assay [3] concerns TRIM66 (PB). The method, then:
as §1, §2, §3

Take H3K9me3: H3 1-20 [Peptide H3K9me3]: the “relative binding over a range of protein concentration” value in assay [1] and in assay [3] was “stronger interaction with H3K9me3 compared with the unmodified peptide” each time. The “binding preference at low versus high protein concentrations” value in assay [2] is listed as “distinct binding preference for the H3K9me3 peptide over the H3K4me0 peptide”.
